The values that follow come from patent US20090192125A1, “Local anti-infective agent for treatment of nail fungal infections” (DermWorx Incorporated, priority 2007, published 2009).

Molecules are shown by their SMILES. Read-outs that look alike come from different tables or passages of the source.

For data set [1] the following is noted: commercially available topical treatment of onychomycosis; cited from earlier work.
The conditions of data set [2]: for NaOM in 50 μL sample: 0.1 g nail pieces incubated 24 h at room temperature, extracted in 1 mL water for 24 h; for NaOM conc in sample: Extracting Solution. The procedure:
These studies measured the penetration of stock solutions of sodium omadine in human fingernails. Sodium omadine (NaOM) 98% was obtained from Acros Organics, a division of Global Fisher Scientific.
Stock Solution #1. Dissolved 100 mg of NaOM in 100 mL of purified water (1.0 mg/mL).
Stock Solution #2. Diluted 2 mL of Stock Solution #1 to 100 mL of purified water (20 μg/mL).
Standard Solution #1 (2.50 μg/mL). Diluted 12.5 mL of Stock Solution #2 to 100 mL with purified water.
Standard Solution #2 (5.00 μg/mL). Diluted 25 mL of Stock Solution #2 to 100 mL with purified water.
Standard Solution #3 (7.50 μg/mL). Diluted 37.5 mL of Stock Solution #2 to 100 mL with purified water.
Standard Solution #4 (10.0 μg/mL). Diluted 50 mL of Stock Solution #2 to 100 mL with purified water.
Standard Solution #5 (20.0 μg/mL). No dilution was necessary, same as Stock Solution #2.
Nail clips, pooled from six human volunteers were cut into small pieces of approximately 0.5-1 mm×2-3 mm. The nail pieces, 0.1 g, were placed in each of the above solutions at room temperature and incubated for twenty-four hours. After incubation, the pieces were washed quickly three times with purified water to remove any residual solution on the nail surface. The pieces were then incubated in 1 mL of purified water for twenty-four hours at room temperature to extract the NaOM absorbed into the nail bed (“Extracting Solution”).
A standard curve of NaOM was made by measuring the absorption at 318 nm for a 500 μL sample containing 0.25, 0.50, 0.75, 1.0, and 2.0 μg of NaOM. An aliquot (50 μL) of each Standard Solution (#1-#5) was diluted to 500 μL with 1 mM cupric chloride (CuCl2). The standard solutions were freshly prepared and incubated at room temperature for fifteen minutes prior to spectrophotometric determination.
The amount of NaOM in each sample of Extracting Solution was determined at 318 nm. Similarly, a 50 μL aliquot of each Extracting Solution was diluted to 500 μL with 1 mM CuCl2 and incubated at room temperature for 15 minutes. The amount of NaOM in each sample of Extracting Solution was then determined at 318 nm by spectrophotometry. The concentration of the NaOM adsorbed into the nail was determined from the standard curve.

The nature of data set [3]: Penetration of hydroxypyridine-2-thione zinc (PT) into minced human fingernail clips (incubation, 30% DMSO extraction, absorption at 318 nm). Type of data set: in vitro ADME. The procedure: These studies measured the penetration of stock solutions of hydroxypyridine-2-thione zinc (PT) in human fingernails.
PT was dissolved in 100% DMSO at a concentration of 2 mg/mL to form a PT stock solution. PT working solution was made by mixing 300 μL of the PT stock solution with 700 μL of water. The final concentration was 0.6 mg/mL (30% DMSO). The nail pieces (0.1 g) were incubated in 1 mL of PT working solution overnight at room temperature. After incubation, the pieces were washed with water three times in a spin column. The pieces were then incubated in 200 μL of 30% DMSO to extract PT for 4 hours at room temperature (“Extracting Solution”).
A standard curve of PT was established by measuring the absorption at 318 nm in 500 μL samples of 30% DMSO containing 0.25, 0.5, 0.75, 1, and 2 μg PT. Standard solutions and subsequent dilutions were prepared as above. The solutions in their desired concentrations were then incubated at room temperature for 5 min prior to spectrophotometric determination.

[4] abbreviates: 0.6 mg/mL PT working solution (30% DMSO), 0.1 g nail incubated overnight, extracted in 200 μL of 30% DMSO for 4 h.

With `Cc1cc(C2CCCCC2)n(O)c(=O)c1` [Ciclopirox, ciclopirox], the “penetration across the layers of the nail (in words)” value in data set [1] is recorded as “poor penetration”.
Take `[Na+].[O-][n+]1ccccc1[S-]` [NaOM, Sodium omadine]: the results for the “NaOM in 0.1 g nail” value in data set [2] (Wk Sol Conc 0.01 mg/mL), in data set [2] (Wk Sol Conc 0.05 mg/mL) and in data set [2] (Wk Sol Conc 0.1 mg/mL) were 1.02 µg, 2.10 µg and 3.99 µg, respectively. The entries for the “NaOM in 50 μL sample” value in data set [2] (Wk Sol Conc 0.01 mg/mL), in data set [2] (Wk Sol Conc 0.05 mg/mL) and in data set [2] (Wk Sol Conc 0.1 mg/mL) were 0.34 µg, 0.70 µg and 1.33 µg, respectively. The “NaOM conc in sample” value stood at 7 µg/mL in data set [2] (Wk Sol Conc 0.01 mg/mL), 14 µg/mL in data set [2] (Wk Sol Conc 0.05 mg/mL) and 27 µg/mL in data set [2] (Wk Sol Conc 0.1 mg/mL).
Turning to `[O-]n1ccccc1=S.[O-]n1ccccc1=S.[Zn+2]` [PT, hydroxypyridine-2-thione zinc], in data set [3] (setting [4]), the “concentration of PT in Extracting Solution” value stood at 23 µg/mL and the “concentration of PT in Extracting Solution (per 50 μL aliquot)” value is 1.15 μg/50 μL. In data set [3] (twelve hours or less incubation time), the “penetration into fingernails (conclusion in words)” value is recorded as “significant penetration”.
